Data published in patent US20150159222A1, “MARKERS ASSOCIATED WITH HUMAN DOUBLE MINUTE 2 INHIBITORS” (NOVARTIS AG, priority 2012, published 2015).

Key:
SJSA-1 osteosarcoma line = settings: SJSA-1, amplified copies of the MDM2 gene; cited from earlier work
human normal fibroblasts = settings: cited from earlier work
SJSA-1 cell line = settings: SJSA-1 xenografts in mouse; cited from earlier work
mouse normal fibroblasts = settings: cited from earlier work
[1] = system: p53 wild-type (SJSA-1 and HCT116 p53wt/wt cells) and p53 mutant cell lines (SAOS2 and HCT116 p53-/- cells); experiment: Cell proliferation inhibition assay (YOPRO); type: cell-based; settings: 72 hours; p53 wild-type vs p53 mutant cell lines
Method: Lucern, Switzerland). Briefly, cells are plated in 96-well plates overnight at 37° C. and are treated with increasing concentrations of MDM2i(1) or MDM2i(2) for 72 hours. Cell concentration in each well is then determined using the DNA-interacting fluorescent dye YOPRO according to the manufacturer's instructions and the fluorescent signal is measured using a Gemini-EM standard plate reader (Molecular Devices: Sunnyvale, Calif., USA).

CCLE cell lines = experiment: Chemical sensitivity of the CCLE cell line panel; type: cell-based
Method: […]. The cell line panel is the one covered by the Cancer Cell Line Encyclopedia (CCLE) initiative (Barretina J., Caponigro G., Stransky N., Venkatesan K., et al. The Cancer Cell Line Encyclopedia enables predictive modeling of anticancer drug sensitivity. Nature 483:603-7, 2012). A detailed genomic, genetic and pharmacologic characterization was conducted on the CCLE cell lines.
p53 mutation status in CCLE cell lines is taken from a data source of gene-level genetic alterations, for example, point-mutations, insertions, deletions and complex genetic alterations, compiled from the Sanger center COSMIC data and internal sources including Exome Capture Sequencing. This comprises data from approximately 1,600 cancer-related genes over the CCLE cell lines.
[…]. […] From such in vitro chemical sensitivity data, the prediction that a cell would be sensitive to an MDM2i treatment was estimated to be 13%. […].

[2] = system: SJSA-1 osteosarcoma cells; experiment: SJSA-1 xenograft tumor growth; type: in vivo, Harlan nude mice; settings: for T/C: 10-day treatment
Method: To further validate the predictive biomarkers disclosed in FIG. 3, in vivo human xenograft models either from human primary samples or from cell lines were directly injected and grown in tumors subcutaneously in mice and then assessed for MDM2i sensitivity. All the animals were allowed to adapt for 4 days and housed in a pathogen-controlled environment (5 mice/Type III cage) with access to food and water ad libitum. Animals were identified with transponders. Studies were performed according to procedures covered by permit number 1975 issued by the Kantonales Veterinaramt Basel-Stadt and strictly adhered to the Eidgenössisches Tierschutzgesetz and the Eidgenössische Tierschutzverordnung. Subcutaneous tumors were induced by concentrating 3.0×10^6 SJSA-1 osteosarcoma cells in 100 μl of PBS (without Ca^2+ and Mg^2+) and injecting in the right flank of Harlan nude mice. The administration of MDM2i began 12-14 days post cell injection. MDM2i was prepared immediately before each administration. MDM2i compounds were dissolved in 0.5% HPMC (hydroxypropylmethylcellulose) and were injected daily (q24h) at 25, 50 or 100 mg/kg. Tumor volumes (TVol), determined from caliper measurements (using the formula l×w×h×π/6) were measured three times per week. Tumor response was quantified by the change in tumor volume (endpoint minus starting value in mm^3) as the T/C, i.e.
In the case of a tumor regression, the tumor response was quantified by the percentage of regression of the starting TVoI, i.e.
The body-weight (BW) of the mice was measured three times per week allowing calculation at any particular time-point relative to the day of initiation of treatment (day 0) of both the percentage change in BW (Δ % BW). […].

p21(CDKN1A) [3] = experiment: p21(CDKN1A) mRNA in SJSA-1 xenograft tumors (qRT-PCR); type: in vivo, Harlan nude mice
Method: Briefly, total RNA was purified from cell pellets using the QIAshredder® (79654, Qiagen:Valencia Calif., USA) and RNeasy Mini Kit® (74106, Qiagen: Valencia Calif., USA) according to the manufacturer's instructions, with the exception that no DNA digestion was performed. Total RNA was eluted with 50 μL of RNase-free water. Total RNA was quantitated using the spectrophotometer ND-1000 Nanodrop® (Wilmington Del., USA). The qRT-PCR (Quantitative Reverse Transcriptase Polymerase Chain Reaction) was set up in triplicate per sample using the One-Step RT qPCR Master Mix Plus (RT-QPRT-032X, Eurogentec: Seraing, Belgium), with either control primers and primers for human p21(CDKN1A) (Hs00355782_m1, Applied Biosystems: Carlsbad Calif., USA) or mouse p21(CDKN1A) (Mm00432448_m1, Applied Biosystems: Carlsbad Calif., USA), namely TaqMan Gene Expression kit assays (20× probe dye FAM™ (or VIC)-TAMRA (or MGB); Applied Biosystems: Carlsbad Calif., USA). […] The number of cycles (CT) was determined, 2^−CT values were calculated, and the value normalized by dividing with the 2^−CT value obtained from the GAPDH control. Fold increase over control (i.e. DMSO- or vehicle-treated animals) was calculated and plotted in the bar graph.

C3A cells = experiment: Western blot of p53 pathway proteins in C3A cells; type: cell-based; settings: 4 hours
Method: (§1) That the biomarkers in Table 2/FIG. 3 are reflective of a functional p53 pathway in MDM2i sensitive cells is verified in FIG. 4. […]. Whole cell lysates were prepared using a cell lysis buffer containing 50 mM Tris-HCl pH 7.5, 120 mM NaCl, 1 mM EDTA, 6 mM EGTA pH 8.5, 1% NP-40, 20 mM NaF, 1 mM PMSF and 0.5 mM Na-Vanadat, proteins were separated on NuPAGE 4-12% Bis-Tris Gel (Invitrogen # NP0322BOX, Lucerne; Switzerland), transferred onto Nitrocellulose Protran® BA 85 membranes (Whatman #10 401 261: Piscataway, N.J., USA) at 1.5 mA/cm^2 membrane for 2 h using a semi-dry blotting system, and immunoblotted with either an anti-phospho-p53 (Ser^15) (1/1000; Cell Signaling Technology #9284: Beverly, Mass., USA) rabbit polyclonal antibody, or an anti-p53 (Ab-6) (Pantropic, clone DO-1,) (1/1000; Calbiochem # OP43 San Diego, Calif., USA), an anti-MDM2 (Ab-1, clone IF2) (1/1000; Calbiochem # OP46), an anti-p21^WAF1(Ab-1, clone EA10) (1/500; Calbiochem # OP64: San Diego, Calif., USA) or an anti-a-Tubulin (Sigma # T5168: St. Louis, Mo., USA) mouse monoclonal antibodies, as indicated. […].

p21(CDKN1A) [4] = experiment: p21(CDKN1A) protein in SJSA-1 xenograft tumors (immunohistochemistry); type: in vivo, Harlan nude mice
Method: SJSA-1 xenograft tumors were collected and a 3-4 mm slice out of the middle of the tumor was removed, transferred into pre-labelled histo-cassettes and immersion-fixed in neutral buffered formalin (NBF) 10% (v/v) (pH 6.8-7.2) (J. T. Baker, Winter Garden, Fla., USA), pre-cooled at 4° C. Tumors were then fixed at room temperature for 24 hours, followed by processing in the TPC 15Duo (Tissue Processing Center, Medite) for paraffinization. Subsequently, the tumor slices were embedded in paraffin and from each paraffin block several 3 μm thick sections were cut on a rotary microtome (Mikrom International AG, Switzerland), spread in a 48° C. water-bath, mounted on glass slides (SuperFrost Plus, Thermo Scientific:Waltham Mass., USA), and dried in an oven either at 37° C. overnight or at 60° C. for 30 min. Dry tissue section were processed for immunohistochemistry (IHC) staining. p21(CDKN1A) immunohistochemistry has been performed using the mouse monoclonal antibody clone SX118 from Dako (Cat. No. M7202 Dako: Carpenteria Calif., USA) at a dilution of 1:50. Immunohistochemistry has been performed on a Ventana Discovery XT automated immunostainer using the N-Histofine Mousestain Kit (Nichirei Bioscience Inc, Japan) in combination with the DABMap Kit chromogen system, omitting the SA-HRP solution (Ventana/Roche Diagnostics GmbH, Mannheim, Germany). […]

COLO 792 cells = experiment: Western blot of p53 pathway proteins in COLO 792 cells; type: cell-based; settings: 4 hours
Method: as §1

[5] = C3A cells, increasing concentrations
[6] = COLO 792 cells, increasing concentrations

SMILES: COc1ccc(C2=N[C@@H](c3ccc(Cl)cc3)[C@@H](c3ccc(Cl)cc3)N2C(=O)N2CCNC(=O)C2)c(OC(C)C)c1 [Nutlin-3]
- proliferation and apoptosis (SJSA-1 osteosarcoma line): reduced proliferation and increased apoptosis
- proliferation and viability of non-cancerous cells (human normal fibroblasts): the proliferation of the cells was slowed, they retained their viability
- reduction of xenograft growth (SJSA-1 cell line): 90%
- proliferation and viability of non-cancerous cells (mouse normal fibroblasts): the proliferation of the cells was slowed, they retained their viability

SMILES: COc1cc2c(cc1OC(C)C)[C@H](c1ccc(Cl)cc1)N(c1ccc(N(C)C[C@H]3CC[C@H](N4CCNC(=O)C4)CC3)cc1)C(=O)C2 [MDM2i(2)]
- tumor cell proliferation [1]: hampering tumor cell proliferation in a p53-dependent manner
- number of insensitive cell lines (CCLE cell lines; CCLE panel): 309
- number of sensitive cell lines (CCLE cell lines; CCLE panel): 47
- sensitivity of p53 mutated cell lines (CCLE cell lines; p53 mutated CCLE cell lines): majority of p53 mutated cell lines are found insensitive
- sensitivity of p53 wild type cell lines (CCLE cell lines; p53 wild type CCLE cell lines): more than two-third of p53 wild type cell lines are sensitive

SMILES: COc1cc2c(cc1OC(C)C)[C@H](c1ccc(Cl)cc1)N(c1ccc(N(C)C[C@H]3CC[C@H](N4CCN(C)C(=O)C4)CC3)cc1)C(=O)C2 [MDM2i(1)]
- T/C ([2]; 25 mg/kg q24h): 50%
- T/C ([2]; 50 mg/kg q24h): 3%
- tumor regression ([2]; 100 mg/kg q24h for 10 days): 65%
- p21(CDKN1A) mRNA levels in tumors (p21(CDKN1A) [3]): significant dose-dependent induction of p21(CDKN1A) mRNA levels in tumors
- p53 protein levels (C3A cells; [5]): induces stabilization of p53 protein levels
- phospho-p53 (C3A cells; [5]): no significant increase of phospho-p53
- expression of p53 target genes p21(CDKN1A) and MDM2 (C3A cells; C3A sensitive cells): induces a strong de novo expression of both p53 target genes p21(CDKN1A) and MDM2
- p21(CDKN1A) protein levels in tumors (p21(CDKN1A) [4]): significant dose-dependent induction of p21(CDKN1A) protein levels in tumors
- tumor cell proliferation [1]: hampering tumor cell proliferation in a p53-dependent manner
- p53 protein levels (COLO 792 cells; [6]): induces stabilization of p53 protein levels
- phospho-p53 (COLO 792 cells; [6]): no significant increase of phospho-p53
- expression of p53 target genes p21(CDKN1A) and MDM2 (COLO 792 cells; COLO-792 insensitive cell line): not in COLO-792 insensitive cell line
